Measured values reported in patent US8512739B2, “Use of low-glycemic sweeteners in food and beverage compositions” (Cargill, Incorporated, priority 2002, dated 2013).

The compounds below were run on Enzyme from the LM NRRL-B-21297 strain (assay: Suitability of acceptors: oligosaccharide formation from sucrose and acceptor). Settings: 0.4% by weight each of sucrose and acceptor, pH 6, 2 hours at 37° C.; DP3-DP7 minus starting material.
Assay type: biochemical, Leuconostoc mesenteroides
Experimental: Enzyme from the LM NRRL-B-21297 strain was tested to determine the suitability of various acceptors. Enzyme was prepared using the methods described herein.
In determining the suitability of the preparation of the sucrose/acceptor products, 0.4% by weight of each sucrose and acceptor were mixed with enzyme solution in 0.01 M sodium gluconate buffer, pH 6, and the reaction proceeded for 2 hours at 37° C.
The carbohydrate profiles of products generated by the enzyme reactions with the blends of sucrose and syrups and syrup solids herein, were analyzed by high performance liquid chromatography (HPLC) using two (2) Bio-Rad Aminex HPX42A carbohydrate columns (300 mm×7.8 mm) available from Bio-Rad, Hercules, Calif., in succession, with water as the eluate at 0.2 ml/min, at a temperature of 65° C.
The reaction rate was estimated based on the amount of oligosaccharides generated from each acceptor and normalized against the fructose concentration in each reaction. The results are reported below in Table 2.0. The values reported for oligosaccharides to fructose are for DP3-DP7 minus starting material.
With `OC[C@H]1O[C@H](OC[C@H]2O[C@H](O[C@H]3[C@H](O)[C@@H](O)C(O)O[C@@H]3CO)[C@H](O)[C@@H](O)[C@@H]2O)[C@H](O)[C@@H](O)[C@@H]1O` (stereo partly drawn) [Panose] the “Weight Ratio of Oligosaccharide to Fructose” value (“Weight Ratio” below) was 1.56. With Maltotriose the “Weight Ratio” value was 0.53. For `OC[C@H]1O[C@H](O[C@H]2[C@H](O)[C@@H](O)C(O)O[C@@H]2CO)[C@H](O)[C@@H](O)[C@@H]1O` (mixture of isomers) [Maltose, reference compound], the “Weight Ratio” value was 2.02. In the case of `OC[C@H]1O[C@H](O[C@H]2[C@H](O)[C@@H](O)[C@@H](O[C@H]3[C@H](O)[C@@H](O)[C@@H](O[C@H]4[C@H](O)[C@@H](O)C(O)O[C@@H]4CO)O[C@@H]3CO)O[C@@H]2CO)[C@H](O)[C@@H](O)[C@@H]1O` (stereo partly drawn) [Maltotetrose], the “Weight Ratio” value is reported as 0.38. With `OC[C@H]1O[C@H](OC[C@H]2OC(O)[C@H](O)[C@@H](O)[C@@H]2O)[C@H](O)[C@@H](O)[C@@H]1O` (stereo partly drawn) [Isomaltose] the “Weight Ratio” value was 0.93.

Same assay, conditions: compared with the acceptors of Table 2.0, two hour reaction time
With `O=C[C@@H](O)[C@H](O)[C@H](O)CO` [arabinose] the suitability as acceptor was “not as effective acceptors”. For `O[C@H]1[C@H](O)[C@@H](O)[C@H](O)[C@@H](O)[C@H]1O` [myo-inositol], the suitability as acceptor was “not as effective acceptors”. With `O=C[C@H](O)[C@@H](O)[C@H](O)CO` [xylose] the suitability as acceptor was “not as effective acceptors”.

These compounds were tested on rat intestinal powder (assay: In vitro digestibility assay using rat intestinal powder). Settings: in 4 hours.
Assay type: in vitro ADME
Experimental: The results provided in this example are derived from in vitro digestibility assays using rat intestinal powder available from Sigma/Aldrich, Saint Louis, Mo., Catalog Number I-1630). […] Free glucose concentration in the reaction mixture was analyzed over time by the HPLC method described above.
With `OC[C@H]1O[C@H](O[C@H]2[C@H](O)[C@@H](O)C(O)O[C@@H]2CO)[C@H](O)[C@@H](O)[C@@H]1O` (mixture of isomers) [Maltose, reference compound] the digested was 88%.
